Publication doi:10.1101/2023.02.27.530254, “Large library docking for cannabinoid-1 receptor agonists with reduced side effects” (bioRxiv, 2024)
Read-outs that look alike come from different tables or passages of the source.

Key:
[1] = biological target: T1, CB1 (Rattus norvegicus, UniProt P20272); experiment: Radioligand competition binding with [3H]-CP-55,940, rat brain membranes; settings: for Ki: [3H]-CP-55,940 competition, rat brain membranes
T1 construct: membrane preparations from rat brain (source of CB1); tissue Bioivt RAT00BRAINMZN; host or cells: rat brain
T1 sequence (P20272 whole entry): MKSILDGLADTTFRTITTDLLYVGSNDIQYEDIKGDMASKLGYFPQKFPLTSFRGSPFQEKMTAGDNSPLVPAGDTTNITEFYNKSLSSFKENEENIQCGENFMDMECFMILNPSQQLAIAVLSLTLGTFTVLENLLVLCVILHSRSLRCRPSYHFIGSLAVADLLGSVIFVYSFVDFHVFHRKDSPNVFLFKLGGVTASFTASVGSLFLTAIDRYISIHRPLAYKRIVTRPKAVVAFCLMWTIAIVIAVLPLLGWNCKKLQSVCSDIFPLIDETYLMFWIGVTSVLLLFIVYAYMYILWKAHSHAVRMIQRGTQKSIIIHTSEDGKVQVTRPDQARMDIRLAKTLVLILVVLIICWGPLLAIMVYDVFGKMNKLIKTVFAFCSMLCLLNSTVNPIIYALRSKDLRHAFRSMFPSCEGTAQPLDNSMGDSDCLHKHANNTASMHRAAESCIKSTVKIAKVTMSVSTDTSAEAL
Procedure: The results were analyzed using nonlinear regression to determine the IC50 and Ki values for each ligand (Prism by GraphPad Software, Inc., San Diego, CA). The Ki values are expressed as the mean of two to three experiments each performed in triplicate.

[2] = biological target: hCB1 (Homo sapiens, UniProt P21554); experiment: bioSens-All ebBRET effector biosensor signaling profiling, HEK293; format: cell-based; parameters: host or cells: HEK293 (HEK293SL clone), transient; settings: for RE, relative efficacy: versus CP-55,940
Sequence of hCB1 (P21554 whole entry): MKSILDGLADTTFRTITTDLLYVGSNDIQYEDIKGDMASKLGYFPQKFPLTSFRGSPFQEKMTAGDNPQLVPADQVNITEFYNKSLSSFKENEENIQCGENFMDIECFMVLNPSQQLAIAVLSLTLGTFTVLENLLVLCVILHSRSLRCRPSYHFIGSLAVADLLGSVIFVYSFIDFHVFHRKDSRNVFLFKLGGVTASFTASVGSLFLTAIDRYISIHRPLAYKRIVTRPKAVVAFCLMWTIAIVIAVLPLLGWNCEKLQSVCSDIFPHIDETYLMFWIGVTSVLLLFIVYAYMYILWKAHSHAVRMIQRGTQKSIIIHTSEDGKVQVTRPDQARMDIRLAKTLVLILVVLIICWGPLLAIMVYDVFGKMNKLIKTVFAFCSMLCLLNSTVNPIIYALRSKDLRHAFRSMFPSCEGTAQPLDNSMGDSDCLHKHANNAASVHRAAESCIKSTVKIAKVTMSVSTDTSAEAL

[3] = biological target: hCB2 (Homo sapiens, UniProt P34972); experiment: as above; format: cell-based; parameters: host or cells: HEK293 (HEK293SL clone), transient; settings: for RE, relative efficacy: versus CP-55,940
Sequence of hCB2 (P34972 whole entry): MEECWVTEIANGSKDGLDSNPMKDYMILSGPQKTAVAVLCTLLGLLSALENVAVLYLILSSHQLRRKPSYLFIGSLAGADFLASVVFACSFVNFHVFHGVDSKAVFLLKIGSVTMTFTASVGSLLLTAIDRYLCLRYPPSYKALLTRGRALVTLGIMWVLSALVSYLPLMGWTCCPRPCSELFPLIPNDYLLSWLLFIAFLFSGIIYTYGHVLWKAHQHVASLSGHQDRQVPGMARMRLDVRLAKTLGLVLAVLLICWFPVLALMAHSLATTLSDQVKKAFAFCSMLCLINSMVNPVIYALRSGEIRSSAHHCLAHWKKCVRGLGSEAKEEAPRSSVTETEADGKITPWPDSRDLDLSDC

## COC(=O)[C@@](C)(NC(=O)c1cc(C)n(-c2cccc(C(F)(F)F)c2)n1)c1cccs1 [‘1350]
[1]; maximal radioligand displacement, read-out: rCB1 binding Emax [SEM]
  Emax: 106%
[1]; rCB1 binding Ki [95% CI]
  Ki: 0.95 nM
[1]; rCB1 binding pKi [95% CI]
  Ki: 1 nM
[2]; HEK293, read-out: hCB1 Barr2 + GRK2 Emax [95% CI]
  Emax: 63%
[2]; HEK293, read-out: hCB1 G13 Emax [95% CI]
  Emax: 56%
[2]; HEK293, read-out: hCB1 G15 Emax [95% CI]
  Emax: 99%
[2]; HEK293, read-out: hCB1 Gi1 Emax [95% CI]
  Emax: 92%
[2]; HEK293, read-out: hCB1 Gi2 Emax [95% CI]
  Emax: 95%
[2]; HEK293, read-out: hCB1 GoB Emax [95% CI]
  Emax: 98%
[2]; HEK293, read-out: hCB1 Gz Emax [95% CI]
  Emax: 94%
[2]; hCB1 Barr2 + GRK2 pEC50 [95% CI], ßarrestin-2 PM recruitment sensor with GRK2
  EC50: 2.19 nM
[2]; hCB1 G13
  RE, relative efficacy: 1.64
[2]; hCB1 G13 EC50 [95% CI], G13 sensor
  EC50: 0.83 nM
[2]; hCB1 G15
  RE, relative efficacy: 1.14
[2]; hCB1 G15 pEC50 [95% CI], G15 sensor
  EC50: 0.219 nM
[2]; hCB1 Gi1
  RE, relative efficacy: 1.98
[2]; hCB1 Gi1 pEC50 [95% CI], Gi1 sensor
  EC50: 0.234 nM
[2]; hCB1 Gi2
  RE, relative efficacy: 1.89
[2]; hCB1 Gi2 EC50 [95% CI], Gi2 sensor
  EC50: 0.28 nM
[2]; hCB1 Gi2 pEC50 [95% CI], Gi2 sensor
  EC50: 0.288 nM
[2]; hCB1 GoB pEC50 [95% CI], GoB sensor
  EC50: 0.288 nM
[2]; hCB1 GoB
  RE, relative efficacy: 2.24
[2]; hCB1 Gz pEC50 [95% CI], Gz sensor
  EC50: 0.347 nM
[2]; hCB1 Gz
  RE, relative efficacy: 0.77
[2]; hCB1 ßarr2 + GRK2
  RE, relative efficacy: 1.16
[3]; HEK293, read-out: hCB2 Barr2 + GRK2 Emax [95% CI]
  Emax: 30%
[3]; HEK293, read-out: hCB2 Gi1 Emax [95% CI]
  Emax: 74%
[3]; HEK293, read-out: hCB2 Gi2 Emax [95% CI]
  Emax: 61%
[3]; HEK293, read-out: hCB2 GoB Emax [95% CI]
  Emax: 59%
[3]; HEK293, read-out: hCB2 Gz Emax [95% CI]
  Emax: 52%
[3]; hCB2 Barr2 + GRK2 pEC50 [95% CI]
  EC50: 4.17 nM
[3]; hCB2 Gi1
  RE, relative efficacy: 0.29
[3]; hCB2 Gi1 EC50 [95% CI]
  EC50: 3.55 nM
[3]; hCB2 Gi2
  RE, relative efficacy: 0.40
[3]; hCB2 Gi2 pEC50 [95% CI]
  EC50: 1.62 nM
[3]; hCB2 GoB pEC50 [95% CI]
  EC50: 2.63 nM
[3]; hCB2 GoB
  RE, relative efficacy: 0.40
[3]; hCB2 Gz EC50 [95% CI]
  EC50: 2.6 nM
[3]; hCB2 Gz pEC50 [95% CI]
  EC50: 2.63 nM
[3]; hCB2 Gz
  RE, relative efficacy: 0.22
[3]; hCB2 ßarr2 + GRK2
  RE, relative efficacy: 0.92
